Reference: patent publication US20250101041A1, “POSITIVE ALLOSTERIC MODULATORS OF THE MUSCARINIC ACETYLCHOLINE RECEPTOR M4” (Vanderbilt University, priority 2022, published 2025)

Biological target: T1, human mAChR M4 (Homo sapiens, UniProt P08173)
T1 construct: expressed in transfected cells; host or cells: CHO-K1 (American Type Culture Collection), stably expressing hM4 and Gqi5
T1 sequence (P08173 1-479): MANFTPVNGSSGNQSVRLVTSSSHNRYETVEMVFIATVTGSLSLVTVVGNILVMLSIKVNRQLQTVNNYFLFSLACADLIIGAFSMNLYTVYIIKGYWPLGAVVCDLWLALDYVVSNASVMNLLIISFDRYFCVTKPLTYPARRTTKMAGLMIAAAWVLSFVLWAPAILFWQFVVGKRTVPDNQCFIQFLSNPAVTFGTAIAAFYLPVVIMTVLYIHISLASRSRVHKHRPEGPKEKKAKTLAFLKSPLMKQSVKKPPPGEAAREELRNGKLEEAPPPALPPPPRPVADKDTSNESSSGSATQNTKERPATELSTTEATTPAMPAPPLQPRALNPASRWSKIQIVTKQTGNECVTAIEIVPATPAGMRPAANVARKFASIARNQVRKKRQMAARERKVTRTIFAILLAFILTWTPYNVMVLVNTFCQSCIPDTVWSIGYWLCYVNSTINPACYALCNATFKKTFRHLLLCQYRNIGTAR
Assay: mAChR M4 cell-based functional assay: calcium mobilization (Fluo-4, FDSS), potentiation of EC20 acetylcholine response in hM4-Gqi5 CHO-K1 cells
Details: human M4; for Emax at 30 µM: CHO-K1, % ACh maximum at 30 μM; for EC50: potentiation of EC20 acetylcholine response, calcium mobilization; for Emax (%)*: % ACh maximum at 30 μM
Procedure, shortened: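 CHO-K1 cells stably co-expressing human M4 and chimeric Gqi5, loaded with Fluo-4 AM (50 min, 37 °C). Compounds in 11-point 1:3 series added first; EC20 acetylcholine added at 144 s and again at 230 s. Calcium read on FDSS at 1 Hz; EC50 and Emax from four-parameter logistic fit of potentiated EC20 response.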

SMILES	Emax at 30 µM [%]	EC50 [nM]	Emax (%)* [%]
COc1ccncc1-c1cnc2c(c1)CN(c1nn3c(=O)cc(C(F)F)nc3c(C)c1C)CC2 [Compound 1-190, 2-(difluoromethyl)-7-(3-(4-methoxypyridin-3-yl)-7,8-dihydro-1,6-naphthyridin-6(5H)-yl)-8,9-dimethyl-4H-pyrimido[1,2-b]pyridazin-4-one]	77	156	–
Cc1c(N2CCc3ncc(C(F)(F)F)cc3C2C)nn2c(=O)ccnc2c1C (single isomer, unassigned) [Compound 1-386, 8,9-dimethyl-7-(5-methyl-3-(trifluoromethyl)-7,8-dihydro-1,6-naphthyridin-6(5H)-yl)-4H-pyrimido[1,2-b] pyridazin-4-one]	–	950	80
Cc1c(N2CCc3ncc(C(F)(F)F)cc3C2C)nn2c(=O)ccnc2c1C (single isomer, unassigned) [Compound 1-385, 8,9-dimethyl-7-(5-methyl-3-(trifluoromethyl)-7,8-dihydro-1,6-naphthyridin-6(5H)-yl)-4H-pyrimido[1,2-b] pyridazin-4-one]	–	1730	42
Cc1ccc(-c2cnc3c(c2)CN(c2nn4c(=O)cc(C)nc4c(C)c2C)CC3)c(C)c1 [Compound 1-136, 7-(3-(2,4-dimethylphenyl)-7,8-dihydro-1,6-naphthyridin-6(5H)-yl)-2,8,9-trimethyl-4H-pyrimido[1,2-b]pyridazin-4-one]	102	633	–
Cc1cc(=O)n2nc(N3CCc4ncc(-c5ccc(F)c(F)c5)cc4C3)c(C)c(C)c2n1 [Compound 1-205, 7-(3-(3,4-difluorophenyl)-7,8-dihydro-1,6-naphthyridin-6(5H)-yl)-2,8,9-trimethyl-4H-pyrimido[1,2-b]pyridazin-4-one]	81	1240	–
Cc1c(N2CCc3ncc(N4CC(C)(C)CC4=O)cc3C2)nn2c(=O)ccnc2c1C [Compound 2-145, 7-(3-(4,4-dimethyl-2-oxopyrrolidin-1-yl)-7,8-dihydro-1,6-naphthyridin-6(5H)-yl)-8,9-dimethyl-4H-pyrimido[1,2-b]pyridazin-4-one]	68	1750	–
Cc1cc(=O)n2nc(N3CCc4ncc(-c5ccc(C(F)(F)F)nc5)cc4C3)c(C)c(C)c2n1 [Compound 1-130, 2,8,9-trimethyl-7-(3-(6-(trifluoromethyl)pyridin-3-yl)-7,8-dihydro-1,6-naphthyridin-6(5H)-yl)-4H-pyrimido[1,2-b]pyridazin-4-one]	84	8090	–
Cc1cc(=O)n2nc(N3CCc4ncc(-c5cnccc5Cl)cc4C3)c(C)c(C)c2n1 [Compound 1-126, 7-(3-(4-chloropyridin-3-yl)-7,8-dihydro-1,6-naphthyridin-6(5H)-yl)-2,8,9-trimethyl-4H-pyrimido[1,2-b]pyridazin-4-one]	88	758	–
Cc1cc2nccc(=O)n2nc1N1CCc2ncc(N3CCOc4ncccc43)cc2C1 [Compound 2-7, 7-(3-(2,3-dihydro-1H-pyrido[2,3-b][1,4]oxazin-1-yl)-7,8-dihydro-1,6-naphthyridin-6(5H)-yl)-8-methyl-4H-pyrimido[1,2-b]pyridazin-4-one]	84	24	–
Cc1cc(=O)n2nc(N3CCc4ncc(-c5ccc(CO)s5)cc4C3)c(C)cc2n1 [Compound 1-299, 7-(3-(5-(hydroxymethyl)thiophen-2-yl)-7,8-dihydro-1,6-naphthyridin-6(5H)-yl)-2,8-dimethyl-4H-pyrimido[1,2-b]pyridazin-4-one]	93	41	–
Cc1ccc(-c2cnc3c(c2)CN(c2nn4c(=O)c(Cl)cnc4cc2C)CC3)cn1 [Compound 1-14, 3-chloro-8-methyl-7-(3-(6-methylpyridin-3-yl)-7,8-dihydro-1,6-naphthyridin-6(5H)-yl)-4H-pyrimido[1,2-b]pyridazin-4-one]	77	69	–
Cc1cc(=O)n2nc(N3CCc4ncc(-c5ccccc5F)cc4C3)c(C)c(C)c2n1 [Compound 1-251, 7-(3-(2-fluorophenyl)-7,8-dihydro-1,6-naphthyridin-6(5H)-yl)-2,8,9-trimethyl-4H-pyrimido[1,2-b]pyridazin-4-one]	84	289	–
Cc1cncc(-c2cnc3c(c2)CN(c2nn4c(=O)cc(C)nc4c(C)c2C)CC3)c1 [Compound 1-127, 2,8,9-trimethyl-7-(3-(5-methylpyridin-3-yl)-7,8-dihydro-1,6-naphthyridin-6(5H)-yl)-4H-pyrimido[1,2-b]pyridazin-4-one]	86	1240	–
Cc1cc(=O)n2nc(N3CCc4ncc(N5CCOc6ncccc65)cc4C3)c(C)cc2n1 [Compound 2-17, 7-(3-(2,3-dihydro-1H-pyrido[2,3-b][1,4]oxazin-1-yl)-7,8-dihydro-1,6-naphthyridin-6(5H)-yl)-2,8-dimethyl-4H-pyrimido[1,2-b]pyridazin-4-one]	98	9	–
Cc1c(N2CCc3ncc(-c4cc(F)ccc4F)cc3C2)nn2c(=O)ccnc2c1C [Compound 1-345, 7-(3-(2,5-difluorophenyl)-7,8-dihydro-1,6-naphthyridin-6(5H)-yl)-8,9-dimethyl-4H-pyrimido[1,2-b]pyridazin-4-one]	70	200	–
Cc1ccccc1-c1cnc2c(c1)CN(c1nn3c(=O)ccnc3c(C)c1C)CC2 [Compound 1-222, 8,9-dimethyl-7-(3-(o-tolyl)-7,8-dihydro-1,6-naphthyridin-6(5H)-yl)-4H-pyrimido[1,2-b] pyridazin-4-one]	83	74	–

Continued, values first:

Emax at 30 µM [%]	EC50 [nM]	Emax (%)* [%]	SMILES
76	99	–	Cc1ccc(-c2cnc3c(c2)CN(c2nn4c(=O)ccnc4cc2C)CC3)cn1 [Compound 1-3, 8-methyl-7-(3-(6-methylpyridin-3-yl)-7,8-dihydro-1,6-naphthyridin-6(5H)-yl)-4H-pyrimido[1,2-b]pyridazin-4-one]
84	358	–	Cc1cc2nccc(=O)n2nc1N1CCc2ncc(-c3cccnc3)cc2C1 [Compound 1-68, 8-methyl-7-(3-(pyridin-3-yl)-7,8-dihydro-1,6-naphthyridin-6(5H)-yl)-4H-pyrimido[1,2-b]pyridazin-4-one]
69	798	–	Cc1cc2nccc(=O)n2nc1N1CCc2ncc(NCC(C)C)cc2C1 [Compound 2-90, 7-(3-(isobutylamino)-7,8-dihydro-1,6-naphthyridin-6(5H)-yl)-8-methyl-4H-pyrimido[1,2-b]pyridazin-4-one]
97	2420	–	Cc1cc2nccc(=O)n2nc1N1CCc2ncc(-c3ccc(C#N)nc3C)cc2C1 [Compound 1-421, 6-methyl-5-(6-(8-methyl-4-oxo-4H-pyrimido[1,2-b]pyridazin-7-yl)-5,6,7,8-tetrahydro-1,6-naphthyridin-3-yl)picolinonitrile]
84	585	–	Cc1cnccc1Nc1cnc2c(c1)CN(c1nn3c(=O)ccnc3cc1C)CC2 [Compound 2-102, 8-methyl-7-(3-((3-methylpyridin-4-yl)amino)-7,8-dihydro-1,6-naphthyridin-6(5H)-yl)-4H-pyrimido[1,2-b]pyridazin-4-one]
71	1040	–	Cc1cc2nccc(=O)n2nc1N1CCc2ncc(-c3cnc(C)n3C)cc2C1 [Compound 1-323, 7-(3-(1,2-dimethyl-1H-imidazol-5-yl)-7,8-dihydro-1,6-naphthyridin-6(5H)-yl)-8-methyl-4H-pyrimido[1,2-b]pyridazin-4-one]
95	433	–	Cc1cc(C(F)(F)F)ncc1-c1cnc2c(c1)CN(c1nn3c(=O)ccnc3cc1C)CC2 [Compound 1-400, 8-methyl-7-(3-(4-methyl-6-(trifluoromethyl)pyridin-3-yl)-7,8-dihydro-1,6-naphthyridin-6(5H)-yl)-4H-pyrimido[1,2-b] pyridazin-4-one]
98	486	–	Cc1cc(-c2cnc3c(c2)CN(c2nn4c(=O)ccnc4cc2C)CC3)n(C)n1 [Compound 1-390, 7-(3-(1,3-dimethyl-1H-pyrazol-5-yl)-7,8-dihydro-1,6-naphthyridin-6(5H)-yl)-8-methyl-4H-pyrimido[1,2-b]pyridazin-4-one]
71	–	–	Cc1cc2nccc(=O)n2nc1N1CCc2ncc(-c3ccc(C#N)nc3)cc2C1 [Compound 1-316, 5-(6-(8-methyl-4-oxo-4H-pyrimido[1,2-b]pyridazin-7-yl)-5,6,7,8-tetrahydro-1,6-naphthyridin-3-yl)picolinonitrile]
82	1120	–	Cc1cc2nccc(=O)n2nc1N1CCc2ncc(-c3cncc(C(C)(C)O)c3)cc2C1 [Compound 1-419, 7-(3-(5-(2-hydroxypropan-2-yl)pyridin-3-yl)-7,8-dihydro-1,6-naphthyridin-6(5H)-yl)-8-methyl-4H-pyrimido[1,2-b]pyridazin-4-one]
89	797	–	Cc1cc2nccc(=O)n2nc1N1CCc2ncc(-c3c(C)noc3C)cc2C1 [Compound 1-416, 7-(3-(3,5-dimethylisoxazol-4-yl)-7,8-dihydro-1,6-naphthyridin-6(5H)-yl)-8-methyl-4H-pyrimido[1,2-b]pyridazin-4-one]
